How the values were obtained:
Assay in all cases: Greenhouse pre-emergence herbicidal activity
Type in all cases: in vivo
Conditions in all cases: 20 DAT
[1] = system: Lolium multiflorum (LOLMU)
Avena fatua (AVEFA) = system: Avena fatua (AVEFA)
Stellaria media (STEME) = system: Stellaria media (STEME)
[2] = system: Chenopodium album (CHEAL)
[3] = system: Abutilon theophrasti (ABUTH)
[4] = system: Polygonum convolvulus (POLCO)
[5] = system: Alopecurus myosuroides (ALOMY)
[6] = system: Anthemis arvensis (ANTAR)
Setaria viridis (SETVI) = system: Setaria viridis (SETVI)
[7] = solo S-metolachlor, use rate 250 g ai/ha
[8] = solo S-metolachlor, use rate 125 g ai/ha
[9] = solo S-metolachlor, use rate 62.5 g ai/ha
[10] = solo herbicide A, use rate 125 g ai/ha
[11] = solo herbicide A, use rate 62.5 g ai/ha
[12] = solo herbicide A, use rate 31.25 g ai/ha

## CCc1cccc(C)c1N(C(=O)CCl)[C@@H](C)COC [S-metolachlor]
[1]; [7]
  herbicidal activity (%): 60%
Avena fatua (AVEFA); [7]
  herbicidal activity (%): 25%
Stellaria media (STEME); [8]
  herbicidal activity (%): 35%
Stellaria media (STEME); [7]
  herbicidal activity (%): 65%
[2]; [9]
  herbicidal activity (%): 0%
[3]; [9]
  herbicidal activity (%): 0%
[3]; [8]
  herbicidal activity (%): 0%
[4]; [7]
  herbicidal activity (%): 25%
[4]; solo S-metolachlor, use rate 500 g ai/ha
  herbicidal activity (%): 20%
[5]; [8]
  herbicidal activity (%): 40%
[5]; [7]
  herbicidal activity (%): 50%
[6]; [9]
  herbicidal activity (%): 0%
[6]; [8]
  herbicidal activity (%): 0%
[6]; [7]
  herbicidal activity (%): 25%
Setaria viridis (SETVI); [9]
  herbicidal activity (%): 80%

## (±)-2-exo-(2-Methylbenzyloxy)-1-methyl-4-isopropyl-7-oxabicyclo[2.2.1]heptane [herbicide A]
[1]; [10]
  herbicidal activity (%): 85%
Avena fatua (AVEFA); [10]
  herbicidal activity (%): 25%
Stellaria media (STEME); [11]
  herbicidal activity (%): 30%
Stellaria media (STEME); [10]
  herbicidal activity (%): 40%
[2]; [12]
  herbicidal activity (%): 40%
[3]; [12]
  herbicidal activity (%): 30%
[3]; [11]
  herbicidal activity (%): 60%
[4]; [10]
  herbicidal activity (%): 0%
[4]; solo herbicide A, use rate 250 g ai/ha
  herbicidal activity (%): 15%
[5]; [11]
  herbicidal activity (%): 98%
[5]; [10]
  herbicidal activity (%): 98%
[6]; [12]
  herbicidal activity (%): 0%
[6]; [11]
  herbicidal activity (%): 0%
[6]; [10]
  herbicidal activity (%): 0%
Setaria viridis (SETVI); [12]
  herbicidal activity (%): 90%
